Test results published in ChEMBL document CHEMBL3045881, “(Hetero)aroyl esters of 2-(N-phthalimido)ethanol and analogues: parallel synthesis, anti-HIV-1 activity and cytotoxicity” (Med Chem Res, 2010).
Calls of active or inactive are those of the source. The calls are words filed in the database; no cut-off is given here.

Legend:
[1] = Cytotoxicity against mock infected Homo sapiens (human) MT4 cells assessed as cell viability by MTT assay; assay type: cell-based
[2] = test system: Human immunodeficiency virus 1; assay: Antiviral activity against wild type Human immunodeficiency virus 1 infected human MT4 cells assessed as inhibition of virus-induced cytopathic effect after 4 days by MTT assay; assay type: functional, organism-based; conditions: Human immunodeficiency virus 1, MT4, 96 h
[3] = test system: Human immunodeficiency virus 1; assay: Antiviral activity against efavirenz-resistant Human immunodeficiency virus 1 harboring reverse transcriptase K103R, V179D, P225H triple mutant infected human MT4 assessed as inhibition of virus-induced cytopathic effect after 4 days by MTT assay; assay type: functional, organism-based
[4] = test system: Human immunodeficiency virus 1; assay: Antiviral activity against Human immunodeficiency virus 1 harboring reverse transcriptase Y181C mutant infected human MT4 assessed as inhibition of virus-induced cytopathic effect after 4 days by MTT assay; assay type: functional, organism-based; conditions: Human immunodeficiency virus 1, 96 h
[5] = test system: Human immunodeficiency virus 1; assay: Antiviral activity against Human immunodeficiency virus 1 harboring reverse transcriptase K103N, Y181C double mutant infected human MT4 assessed as inhibition of virus-induced cytopathic effect after 4 days by MTT assay; assay type: functional, organism-based

SMILES | CC50 [1] | EC50 [2] | Activity [3] | EC50 [4] | Activity [5]
O=C(OCCN1C(=O)c2ccccc2C1=O)c1cccnc1Cl | > 100 µM | > 100 µM | – | – | –
O=C(OC1Cc2cccc3cccc1c23)c1ccc(Cl)c([N+](=O)[O-])c1 (racemic) | 1.6 µM | > 100 µM | – | – | –
O=C(OCCN1C(=O)[C@H]2CCCC[C@H]2C1=O)c1cc(F)ccc1F | > 100 µM | > 100 µM | – | – | –
O=C(OCCN1C(=O)c2ccccc2C1=O)c1cc(F)ccc1Br | > 100 µM | 35 µM | inactive | 90 µM | inactive
O=C(OCCN1C(=O)c2ccccc2C1=O)c1ccccc1[N+](=O)[O-] | > 100 µM | 80 µM | – | – | –
O=C(OCCN1C(=O)c2ccccc2C1=O)c1cccc([N+](=O)[O-])c1 | > 100 µM | 69 µM | – | – | –
O=C(OCCN1C(=O)c2ccccc2C1=O)c1cccc(Cl)c1 | > 100 µM | 93 µM | – | – | –
O=C(OCCN1C(=O)c2ccccc2C1=O)c1ccc(F)cc1F | > 100 µM | > 100 µM | – | – | –
O=C(OCCS(=O)(=O)c1ccccc1)c1ccc(Cl)c(Cl)c1 | 19 µM | > 19 µM | – | – | –
O=C(OCCN1C(=O)[C@H]2CC=CC[C@H]2C1=O)c1ccc(Cl)c([N+](=O)[O-])c1 | 36 µM | > 36 µM | – | – | –
CCC(C(=O)OCCN1C(=O)c2ccccc2C1=O)c1ccccc1 (racemic) | > 100 µM | 16 µM | – | – | –
CC(C)(C)c1ccc(C(=O)OCCN2C(=O)c3ccccc3C2=O)cc1 | 92 µM | > 92 µM | – | – | –
O=C(OCCN1C(=O)[C@H]2CCCC[C@H]2C1=O)c1ccc(Cl)c([N+](=O)[O-])c1 | 28 µM | > 28 µM | – | – | –
O=C(/C=C/c1ccccc1)OCCN1C(=O)c2ccccc2C1=O | > 100 µM | 50 µM | – | – | –
O=C(OCCN1C(=O)c2ccccc2C1=O)c1ccc(Br)cc1 | > 100 µM | > 100 µM | – | – | –
O=C(OCCOc1ccc(Br)cc1)c1ccc(Cl)c([N+](=O)[O-])c1 | 59 µM | > 59 µM | – | – | –
CCCCCc1ccc(C(=O)OCCN2C(=O)c3ccccc3C2=O)cc1 | > 100 µM | 14 µM | – | – | –
CC(CN1C(=O)c2ccccc2C1=O)OC(=O)c1cc(F)ccc1F (racemic) | > 100 µM | > 100 µM | – | – | –
O=C(OCCN1C(=O)c2ccccc2C1=O)c1cc(Cl)cc(Cl)c1 | > 100 µM | 27 µM | – | – | –
O=C(OCCN1C(=O)c2ccccc2C1=O)c1ccc(Cl)c(Cl)c1 | > 100 µM | 0.7 µM | – | – | –
O=C(OC1Cc2cccc3cccc1c23)c1ccc(Cl)c(Cl)c1 (racemic) | 42 µM | > 100 µM | – | – | –
Cc1ccc(F)cc1C(=O)OCCN1C(=O)c2ccccc2C1=O | > 100 µM | 47 µM | – | – | –
O=C(OCCN1C(=O)c2ccccc2C1=O)c1cc(F)ccc1F | > 100 µM | 0.2 µM | – | – | –
O=C(OCCc1c[nH]c2ccccc12)c1ccc(Cl)c([N+](=O)[O-])c1 | 6 µM | > 6 µM | – | – | –
Cc1cccc(C(=O)OCCN2C(=O)c3ccccc3C2=O)c1 | > 100 µM | 82 µM | – | – | –
O=C(OCCN1C(=O)c2ccccc2C1=O)c1ccccc1 | > 100 µM | 55 µM | – | – | –
O=C(OCCN1C(=O)c2ccccc2C1=O)c1cc([N+](=O)[O-])ccc1F | > 100 µM | > 100 µM | – | – | –
O=C(OCCN1C(=O)c2ccccc2C1=O)c1ccc(Cl)c([N+](=O)[O-])c1 | > 100 µM | 0.7 µM | – | – | –

SMILES | CC50 [1] | EC50 [2] | Activity [3] | EC50 [4] | Activity [5]
O=C(OCCCN1C(=O)c2ccccc2C1=O)c1cc(F)ccc1F | > 100 µM | > 100 µM | – | – | –
CC(C)(C)c1ccc2c(c1)C(=O)N(CCOC(=O)c1cc(F)ccc1F)C2=O | > 100 µM | > 100 µM | – | – | –
CC(COC(=O)c1cc(F)ccc1F)N1C(=O)c2ccccc2C1=O (racemic) | > 100 µM | > 100 µM | – | – | –
O=C(OCCN1C(=O)c2ccccc2C1=O)c1cccc(F)c1 | > 100 µM | 75 µM | – | – | –
O=C(OCCN1C(=O)c2ccccc2C1=O)c1ccc2ccccc2c1 | > 100 µM | > 100 µM | – | – | –
O=C(OCCN1C(=O)c2ccccc2C1=O)c1ccccc1Cl | > 100 µM | 80 µM | – | – | –
O=C(OCCN1C(=O)c2ccccc2C1=O)c1cc([N+](=O)[O-])ccc1Cl | 30 µM | > 30 µM | – | – | –
Cc1cc(C(=O)OC2Cc3cccc4cccc2c34)ccc1Br (racemic) | 8 µM | > 100 µM | – | – | –
Cc1cc(C(=O)OCCN2C(=O)c3ccccc3C2=O)ccc1Br | > 100 µM | 60 µM | – | – | –
Cc1ccc2c(c1)C(=O)N(CCOC(=O)c1cc(F)ccc1F)C2=O | > 100 µM | > 100 µM | – | – | –
O=C(OCCN1C(=O)c2ccccc2C1=O)c1cc(F)ccc1Cl | > 100 µM | > 100 µM | – | – | –
O=C(OCCN1C(=O)c2ccccc2C1=O)c1cc(C(F)(F)F)ccc1F | > 100 µM | > 100 µM | – | – | –
O=C(OCCN1C(=O)c2ccccc2C1=O)c1ccc([N+](=O)[O-])cc1Cl | > 100 µM | 15 µM | – | – | –
O=C(OCCN1C(=O)c2ccccc2C1=O)c1c(F)cccc1F | > 100 µM | 49 µM | – | – | –
O=C(OCCN1C(=O)c2ccccc2C1=O)c1cc(F)cc(F)c1 | > 100 µM | > 100 µM | – | – | –
Cc1ccc2c(c1)C(=O)N(CCOC(=O)c1ccc(Cl)c([N+](=O)[O-])c1)C2=O | 81 µM | > 81 µM | – | – | –
O=C(OCCN1C(=O)[C@H]2CC=CC[C@H]2C1=O)c1cc(F)ccc1F | > 100 µM | > 100 µM | – | – | –
Cc1cc(C(=O)OCCN2C(=O)c3ccccc3C2=O)c(C)o1 | > 100 µM | 28 µM | – | – | –
O=C(OCN1C(=O)c2ccccc2C1=O)c1ccc(Cl)c([N+](=O)[O-])c1 | 11 µM | > 11 µM | – | – | –
O=C(OCCN1C(=O)c2ccccc2C1=O)c1ccc(Cl)nc1 | > 100 µM | > 100 µM | – | – | –
O=C(OCCN1C(=O)c2ccccc2C1=O)c1cc(Cl)ccc1F | > 100 µM | > 100 µM | – | – | –
O=C(OCCOc1ccc([N+](=O)[O-])cc1)c1ccc(Cl)c([N+](=O)[O-])c1 | 47 µM | > 47 µM | – | – | –
O=C(OCCCN1C(=O)c2ccccc2C1=O)c1ccc(Cl)c([N+](=O)[O-])c1 | > 100 µM | > 100 µM | – | – | –
O=C(OCCN1C(=O)c2ccccc2C1=O)c1cccc(F)c1F | > 100 µM | > 100 µM | – | – | –
O=C(OCCN1C(=O)c2ccccc2C1=O)c1ccc(F)c(F)c1 | > 100 µM | > 100 µM | – | – | –
O=C(OCN1C(=O)c2ccccc2C1=O)c1cc(F)ccc1F | > 100 µM | > 100 µM | – | – | –
CC(CN1C(=O)c2ccccc2C1=O)OC(=O)c1ccc(Cl)c([N+](=O)[O-])c1 (racemic) | 34 µM | > 34 µM | – | – | –
